The record followed here is patent US20260297081A1, “COMPOUNDS AND METHODS OF TREATING CANCERS” (Cullgen Inc., priority 2023, published 2026).

Molecules are shown by their SMILES. A value given as a limit tells only on which side of the number the result lay.

For one assay, the system named is MCF7 cells. Put plainly: Anti-proliferation (viability) of MCF7 cells (Table 7, FIG. 2B). Type of assay: cell-based. The note with it: Homo sapiens, MCF7, MCF7 cells, 3-6 days, 10-point serial dilution; read-out: GI IC50 in MCF-7.
The subject of a further assay is Calu-1 cells. Put plainly: Anti-proliferation (viability) of NSCLC Calu-1 cells, 3 days (Table 7, FIG. 2B). Type of assay: cell-based. The note with it: Homo sapiens, 72 h; Calu-1 cells, 3 days, 10-point serial dilution; read-out: GI IC50 in Calu-1. The essentials:
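Cells were exposed to heterobifunctional compounds across a 10-point serial dilution, for 3 days with Calu-1 and 6 days with T47D. A negative control was included that keeps the DDB1 ligand and linker but carries a modified warhead that impairs CDK4 binding.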

As to `CC(=O)c1c(C)c2cnc(Nc3ccc(N4CCN(CC(=O)NC5CC6(C5)CC(Nc5cc(C)ccc5C(=O)Nc5cc(C)on5)C6)CC4)cn3)nc2n(C2CCCC2)c1=O` (stereo not drawn) [CPD-286, 2-((6-(2-(4-(6-((6-acetyl-8-cyclopentyl-5-methyl-7-oxo-7,8-dihydropyrido[2,3-d]pyrimidin-2-yl)amino)pyridin-3-yl)piperazin-1-yl)acetamido)spiro[3.3]heptan-2-yl)amino)-4-methyl-N-(5-methylisoxazol-3-yl)benzamide], the IC50 in the assay with MCF7 cells is above 100 nM; with Calu-1 cells it was at least 50 nM.

For the molecule `[2H]C([2H])([2H])Nc1ccc(C(=O)Nc2cc(C)n(C)n2)c(N[C@H]2CC[C@H](C(=O)N3CCC(N4CCN(c5ccc(Nc6ncc7c(C)c(C(C)=O)c(=O)n(C8CCCC8)c7n6)nc5)CC4)C3)CC2)n1` (stereo partly drawn) [CPD-477, 2-((4-(3-(4-(6-((6-acetyl-8-cyclopentyl-5-methyl-7-oxo-7,8-dihydropyrido[2,3-d]pyrimidin-2-yl)amino)pyridin-3-yl)piperazin-1-yl)pyrrolidine-1-carbonyl)cyclohexyl)amino)-N-(1,5-dimethyl-1H-pyrazol-3-yl)-6-((methyl-d3)amino)nicotinamide], the IC50 with MCF7 cells was above 100 nM; with Calu-1 cells it was 10 to 50 nM.

With `CC(=O)c1c(C)c2cnc(Nc3ccc(CN4CCC(NC(=O)C5CC6(CC(Nc7nc(NC(C)C)ccc7C(=O)Nc7ccc(N(C)C)nn7)C6)C5)CC4)cn3)nc2n(C2CCCC2)c1=O` (stereo not drawn) [CPD-486, 2-((6-((1-((6-((6-acetyl-8-cyclopentyl-5-methyl-7-oxo-7,8-dihydropyrido[2,3-d]pyrimidin-2-yl)amino)pyridin-3-yl)methyl)piperidin-4-yl)carbamoyl)spiro[3.3]heptan-2-yl)amino)-N-(6-(dimethylamino)pyridazin-3-yl)-6-(isopropylamino)nicotinamide], the IC50 was below 50 nM in the assay on MCF7 cells and at most 10 nM with Calu-1 cells.

For the molecule `[2H]C([2H])([2H])Nc1ccc(C(=O)Nc2ccc(N(C)C)nn2)c(N[C@H]2CC[C@H](C(=O)N3CCC(N4CCN(c5ccc(Nc6ncc7c(C)c(C(C)=O)c(=O)n(C8CCCC8)c7n6)nc5)CC4)C3)CC2)n1` (stereo partly drawn) [CPD-476, 2-((trans-4-(3-(4-(6-((6-acetyl-8-cyclopentyl-5-methyl-7-oxo-7,8-dihydropyrido[2,3-d]pyrimidin-2-yl)amino)pyridin-3-yl)piperazin-1-yl)pyrrolidine-1-carbonyl)cyclohexyl)amino)-N-(6-(dimethylamino)pyridazin-3-yl)-6-((methyl-d3)amino)nicotinamide], the IC50 is below 50 nM with MCF7 cells and at most 10 nM with Calu-1 cells.

In the case of `CC(=O)c1c(C)c2cnc(Nc3ccc(N4CCN(C5CCN(C(=O)[C@H]6CC[C@H](Nc7nc(NC(C)C)ccc7-c7nc8cnc(N(C)C)cc8[nH]7)CC6)C5)CC4)cn3)nc2n(C2CCCC2)c1=O` (stereo partly drawn) [CPD-552, trans-6-acetyl-8-cyclopentyl-2-((5-(4-(1-(trans-4-((3-(6-(dimethylamino)-3H-imidazo[4,5-c]pyridin-2-yl)-6-(isopropylamino)pyridin-2-yl)amino)cyclohexane-1-carbonyl)pyrrolidin-3-yl)piperazin-1-yl)pyridin-2-yl)amino)-5-methylpyrido[2,3-d]pyrimidin-7(8H)-one], the IC50 with MCF7 cells was above 100 nM; in the assay on Calu-1 cells it was at least 50 nM.

Take `[2H]C([2H])([2H])Nc1ccc(C(=O)Nc2ccc(N(C)C)nn2)c(NC2CC3(C2)CN(C(=O)CN2CCN(C(C)c4ccc(Nc5ncc6c(C)c(C(C)=O)c(=O)n(C7CCCC7)c6n5)nc4)CC2)C3)n1` (stereo not drawn) [CPD-488, 2-((2-(2-(4-(1-(6-((6-acetyl-8-cyclopentyl-5-methyl-7-oxo-7,8-dihydropyrido[2,3-d]pyrimidin-2-yl)amino)pyridin-3-yl)ethyl)piperazin-1-yl)acetyl)-2-azaspiro[3.3]heptan-6-yl)amino)-N-(6-(dimethylamino)pyridazin-3-yl)-6-((methyl-d3)amino)nicotinamide]: the IC50 with MCF7 cells is below 50 nM; in the assay on Calu-1 cells, at most 10 nM.

For `CC(=O)c1c(C)c2cnc(Nc3ccc(N4CCN(C5CCN(C(=O)[C@H]6CC[C@H](Nc7nc(NC(C)C)ccc7-c7nc8ccc(N(C)C)nc8[nH]7)CC6)C5)CC4)cn3)nc2n(C2CCCC2)c1=O` (relative stereo) [CPD-546, trans-6-acetyl-8-cyclopentyl-2-((5-(4-(1-(4-((3-(5-(dimethylamino)-3H-imidazo[4,5-b]pyridin-2-yl)-6-(isopropylamino)pyridin-2-yl)amino)cyclohexane-1-carbonyl)pyrrolidin-3-yl)piperazin-1-yl)pyridin-2-yl)amino)-5-methylpyrido[2,3-d]pyrimidin-7(8H)-one], the half-inhibitory concentration (IC50) in the assay on MCF7 cells was below 50 nM; in the assay on Calu-1 cells it was at most 10 nM.

Consider `CC(=O)c1c(C)c2cnc(Nc3ccc(N4CCN(CC(=O)NC5CC(Nc6nc(NC(C)C)ccc6C(=O)Nc6cn(C)c(C7CC7)n6)C5)CC4)cn3)nc2n(C2CCCC2)c1=O` (stereo not drawn) [CPD-288, 2-((3-(2-(4-(6-((6-acetyl-8-cyclopentyl-5-methyl-7-oxo-7,8-dihydropyrido[2,3-d]pyrimidin-2-yl)amino)pyridin-3-yl)piperazin-1-yl)acetamido)cyclobutyl)amino)-N-(2-cyclopropyl-1-methyl-1H-imidazol-4-yl)-6-(isopropylamino)nicotinamide], for which the figures for the IC50 with MCF7 cells and in the assay with Calu-1 cells were above 100 nM and at least 50 nM, respectively.

Take `CC(=O)c1c(C)c2cnc(Nc3ccc(N4CCN(C5CCN(C(=O)[C@H]6CC[C@H](Nc7nc(NC(C)C)ccc7-c7nc8cc(N(C)C)ccc8[nH]7)CC6)C5)CC4)cn3)nc2n(C2CCCC2)c1=O` (relative stereo) [CPD-540, trans-6-acetyl-8-cyclopentyl-2-((5-(4-(1-(4-((3-(5-(dimethylamino)-1H-benzo[d]imidazol-2-yl)-6-(isopropylamino)pyridin-2-yl)amino)cyclohexane-1-carbonyl)pyrrolidin-3-yl)piperazin-1-yl)pyridin-2-yl)amino)-5-methylpyrido[2,3-d]pyrimidin-7(8H)-one]: the values for the IC50 in the assay with MCF7 cells and in the assay with Calu-1 cells were above 100 nM and at least 50 nM, respectively.

As for `CC(=O)c1c(C)c2cnc(Nc3ccc(N4CCN(C5CCN(C(=O)NC6CC7(C6)CC(Nc6nc(NC(C)C)ccc6C(=O)Nc6ccc(N(C)C)nn6)C7)C5)CC4)cn3)nc2n(C2CCCC2)c1=O` (stereo not drawn) [CPD-470, 2-((6-(3-(4-(6-((6-acetyl-8-cyclopentyl-5-methyl-7-oxo-7,8-dihydropyrido[2,3-d]pyrimidin-2-yl)amino)pyridin-3-yl)piperazin-1-yl)pyrrolidine-1-carboxamido)spiro[3.3]heptan-2-yl)amino)-N-(6-(dimethylamino)pyridazin-3-yl)-6-(isopropylamino)nicotinamide], the IC50 with MCF7 cells is above 100 nM; with Calu-1 cells, at most 10 nM.

Take `[2H]C([2H])([2H])Nc1ccc(C(=O)Nc2cn3c(n2)CCC3)c(N[C@H]2CC[C@H](C(=O)N3CCC(N4CCN(c5ccc(Nc6ncc7c(C)c(C(C)=O)c(=O)n(C8CCCC8)c7n6)nc5)CC4)C3)CC2)n1` (stereo partly drawn) [CPD-569, 2-((trans-4-(3-(4-(6-((6-acetyl-8-cyclopentyl-5-methyl-7-oxo-7,8-dihydropyrido[2,3-d]pyrimidin-2-yl)amino)pyridin-3-yl)piperazin-1-yl)pyrrolidine-1-carbonyl)cyclohexyl)amino)-N-(6,7-dihydro-5H-pyrrolo[1,2-a]imidazol-2-yl)-6-((methyl-d3)amino)nicotinamide]: the IC50 with MCF7 cells was above 100 nM; in the assay on Calu-1 cells, at least 50 nM.

Take `CCN1CCc2cc(-c3nc(Nc4ccc(CN5CCN(CC(=O)N6CC7(CC(Nc8nc(NC(C)C)ccc8C(=O)Nc8ccc(N(C)C)nn8)C7)C6)CC5)cn4)ncc3F)ccc2C1=O` [CPD-553, N-(6-(dimethylamino)pyridazin-3-yl)-2-((2-(2-(4-((6-((4-(2-ethyl-1-oxo-1,2,3,4-tetrahydroisoquinolin-6-yl)-5-fluoropyrimidin-2-yl)amino)pyridin-3-yl)methyl)piperazin-1-yl)acetyl)-2-azaspiro[3.3]heptan-6-yl)amino)-6-(isopropylamino)nicotinamide]: the IC50 is above 100 nM with MCF7 cells and at least 50 nM in the assay with Calu-1 cells.

`CC(=O)c1c(C)c2cnc(Nc3ccc(N4CCC(N5CCC[C@H]5C(=O)NC5CC6(C5)CC(Nc5nc(NC(C)C)ccc5C(=O)Nc5ccc(N(C)C)nn5)C6)CC4)cn3)nc2n(C2CCCC2)c1=O` (stereo partly drawn) [CPD-543, (S)-2-((6-(1-(1-(6-((6-acetyl-8-cyclopentyl-5-methyl-7-oxo-7,8-dihydropyrido[2,3-d]pyrimidin-2-yl)amino)pyridin-3-yl)piperidin-4-yl)pyrrolidine-2-carboxamido)spiro[3.3]heptan-2-yl)amino)-N-(6-(dimethylamino)pyridazin-3-yl)-6-(isopropylamino)nicotinamide]: the results for the IC50 in the assay with MCF7 cells and in the assay with Calu-1 cells were below 50 nM and at most 10 nM, respectively.

Turning to `CC(=O)c1c(C)c2cnc(Nc3ccc(N4CCC5(CC4)CC5C(=O)NC4CC5(C4)CC(Nc4nc(NC(C)C)ccc4C(=O)Nc4cn(C)c(C6CC6)n4)C5)cn3)nc2n(C2CCCC2)c1=O` (stereo not drawn) [CPD-457, 6-(6-((6-acetyl-8-cyclopentyl-5-methyl-7-oxo-7,8-dihydropyrido[2,3-d]pyrimidin-2-yl)amino)pyridin-3-yl)-N-(6-((3-((2-cyclopropyl-1-methyl-1H-imidazol-4-yl)carbamoyl)-6-(isopropylamino)pyridin-2-yl)amino)spiro[3.3]heptan-2-yl)-6-azaspiro[2.5]octane-1-carboxamide], the figures for the IC50 in the assay with MCF7 cells and in the assay with Calu-1 cells were below 50 nM and at most 10 nM, respectively.

Consider `[2H]C([2H])([2H])Nc1ccc(C(=O)Nc2cc(C)on2)c(NC2CC(CNC(=O)CN3CCN(c4ccc(Nc5ncc6c(C)c(C(C)=O)c(=O)n(C7CCCC7)c6n5)nc4)CC3)C2)n1` (stereo not drawn) [CPD-283, 2-((3-((2-(4-(6-((6-acetyl-8-cyclopentyl-5-methyl-7-oxo-7,8-dihydropyrido[2,3-d]pyrimidin-2-yl)amino)pyridin-3-yl)piperazin-1-yl)acetamido)methyl)cyclobutyl)amino)-6-((methyl-d3)amino)-N-(5-methylisoxazol-3-yl)nicotinamide], for which the values for the IC50 with MCF7 cells and in the assay with Calu-1 cells were 50 to 100 nM and at most 10 nM, respectively.

The term IC50 denotes the midpoint of a concentration-inhibition curve.
